The values that follow are results of earlier work, collected in patent US20060040940A1, “Imidazopyridines pyrimidines and triazines for enhancing cognition as gaba-a-alphas 5 receoptor subtype ligands” (priority 2001, published 2006).

For data set [1], the system named is benzodiazepine receptor. Conditions: reported in Psychobiology, 21:101-108.
In data set [2] the test system is benzodiazepine receptor. The following applies: background statement.

With `COC(=O)c1cc2c(cn1)[nH]c1ccccc12` [β-CCM], in data set [1], the “spatial learning in the Morris watermaze” value is “enhanced spatial learning”. For the same molecule, the proconvulsant effect entry in data set [2] is given as “proconvulsant”.
